From ChEMBL document CHEMBL6083186, “Chromenone: An emerging scaffold in anti-Alzheimer drug discovery” (Bioorg Med Chem Lett, 2024)
≈ marks a conversion by molar mass, not a printed value.

Legend:
Cholinesterase [1] = target: T1, Cholinesterase (Homo sapiens, UniProt P06276); experiment: Inhibition of BChE (unknown origin) by Ellman's method
[2] = Antioxidant activity assessed as DPPH radical scavenging activity; type: functional
Cholinesterase [3] = target: T2, Cholinesterase (Equus caballus, UniProt P81908); experiment: Inhibition of equine BChE using BTCh as substrate incubated for 15 mins by Ellmans method
T2 sequence (P81908 whole entry): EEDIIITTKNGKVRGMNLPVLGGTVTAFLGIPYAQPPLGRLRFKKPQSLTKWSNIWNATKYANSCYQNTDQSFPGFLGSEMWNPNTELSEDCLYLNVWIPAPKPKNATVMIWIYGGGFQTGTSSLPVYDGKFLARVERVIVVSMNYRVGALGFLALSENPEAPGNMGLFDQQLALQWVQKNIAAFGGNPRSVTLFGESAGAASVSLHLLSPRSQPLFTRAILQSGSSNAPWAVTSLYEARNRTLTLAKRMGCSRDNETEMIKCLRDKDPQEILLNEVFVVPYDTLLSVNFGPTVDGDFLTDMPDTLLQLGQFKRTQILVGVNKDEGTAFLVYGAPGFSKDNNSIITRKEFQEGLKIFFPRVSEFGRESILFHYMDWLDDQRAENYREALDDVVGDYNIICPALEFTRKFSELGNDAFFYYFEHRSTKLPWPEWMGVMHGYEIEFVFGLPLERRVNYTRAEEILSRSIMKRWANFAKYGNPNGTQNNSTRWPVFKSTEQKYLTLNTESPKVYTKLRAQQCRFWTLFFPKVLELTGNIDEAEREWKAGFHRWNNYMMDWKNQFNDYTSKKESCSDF

Acetylcholinesterase [4] = target: Acetylcholinesterase (Electrophorus electricus, UniProt O42275); experiment: Inhibition of electric eel AChE
Chain of Acetylcholinesterase (Electrophorus electricus, UniProt O42275) (O42275 whole entry): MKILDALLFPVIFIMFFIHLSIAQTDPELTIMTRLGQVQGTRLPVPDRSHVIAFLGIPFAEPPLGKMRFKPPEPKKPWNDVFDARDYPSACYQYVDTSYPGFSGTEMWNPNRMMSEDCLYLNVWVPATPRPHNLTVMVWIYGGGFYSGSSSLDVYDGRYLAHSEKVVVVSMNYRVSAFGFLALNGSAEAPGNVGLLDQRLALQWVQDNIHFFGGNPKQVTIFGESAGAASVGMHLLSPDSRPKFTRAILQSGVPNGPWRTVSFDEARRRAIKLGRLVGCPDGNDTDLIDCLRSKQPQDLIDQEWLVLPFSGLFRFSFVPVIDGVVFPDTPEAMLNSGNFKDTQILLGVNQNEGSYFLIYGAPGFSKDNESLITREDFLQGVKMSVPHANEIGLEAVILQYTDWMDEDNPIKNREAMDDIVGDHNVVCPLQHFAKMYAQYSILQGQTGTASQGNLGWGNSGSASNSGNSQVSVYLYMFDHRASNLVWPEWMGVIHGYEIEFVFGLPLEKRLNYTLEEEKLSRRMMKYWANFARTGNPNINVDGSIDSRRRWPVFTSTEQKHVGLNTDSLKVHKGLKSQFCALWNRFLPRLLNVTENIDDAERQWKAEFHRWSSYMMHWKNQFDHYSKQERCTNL

Beta-secretase 1 [5] = target: T3, Beta-secretase 1 (Homo sapiens, UniProt P56817); experiment: Inhibition of BACE1 (unknown origin) by FRET assay
T3 sequence (P56817 whole entry): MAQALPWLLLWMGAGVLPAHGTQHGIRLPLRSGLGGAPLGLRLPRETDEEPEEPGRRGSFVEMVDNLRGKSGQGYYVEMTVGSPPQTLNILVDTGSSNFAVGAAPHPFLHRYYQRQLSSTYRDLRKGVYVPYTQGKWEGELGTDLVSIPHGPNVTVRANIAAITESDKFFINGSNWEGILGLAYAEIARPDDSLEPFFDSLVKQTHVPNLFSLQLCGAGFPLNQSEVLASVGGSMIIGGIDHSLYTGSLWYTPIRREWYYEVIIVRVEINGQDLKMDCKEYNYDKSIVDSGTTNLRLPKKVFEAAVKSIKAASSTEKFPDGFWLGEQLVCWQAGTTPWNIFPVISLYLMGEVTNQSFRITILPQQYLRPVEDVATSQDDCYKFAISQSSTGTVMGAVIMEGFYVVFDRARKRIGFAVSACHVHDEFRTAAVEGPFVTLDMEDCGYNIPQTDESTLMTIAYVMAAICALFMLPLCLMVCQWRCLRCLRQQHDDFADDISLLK

Beta-secretase 1 [6] = target: T3, Beta-secretase 1; experiment: Inhibition of BACE1 (unknown origin) using Rh-EVNLDAEFK-Quencher as substrate incubated for 1 hr by FRET assay
Acetylcholinesterase [7] = target: T4, Acetylcholinesterase (Homo sapiens, UniProt P22303); experiment: Inhibition of AChE (unknown origin) by Ellman's method
T4 sequence (P22303 whole entry): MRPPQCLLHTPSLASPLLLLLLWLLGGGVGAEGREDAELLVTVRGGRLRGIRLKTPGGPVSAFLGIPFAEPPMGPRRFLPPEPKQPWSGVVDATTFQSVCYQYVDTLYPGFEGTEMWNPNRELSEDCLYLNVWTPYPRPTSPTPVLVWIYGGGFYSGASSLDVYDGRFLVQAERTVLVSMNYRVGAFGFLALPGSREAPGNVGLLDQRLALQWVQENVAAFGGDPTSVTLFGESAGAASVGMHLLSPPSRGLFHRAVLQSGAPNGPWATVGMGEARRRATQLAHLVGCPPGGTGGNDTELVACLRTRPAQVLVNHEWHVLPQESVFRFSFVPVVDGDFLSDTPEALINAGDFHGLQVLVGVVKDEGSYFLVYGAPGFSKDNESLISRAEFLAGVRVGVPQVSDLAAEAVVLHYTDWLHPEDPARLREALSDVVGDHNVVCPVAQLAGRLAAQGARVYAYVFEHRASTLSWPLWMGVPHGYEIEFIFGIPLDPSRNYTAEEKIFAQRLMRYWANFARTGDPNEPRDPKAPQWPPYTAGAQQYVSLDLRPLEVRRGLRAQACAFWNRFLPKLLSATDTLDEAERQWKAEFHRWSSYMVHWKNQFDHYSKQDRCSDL

Cholinesterase [8] = target: T2, Cholinesterase; experiment: Inhibition of equine serum BChE using butyrylthiocholine iodide as substrate by DTNB reagent based Ellman's method
Beta-secretase 1 [9] = target: T3, Beta-secretase 1; experiment: Inhibition of BACE1 (unknown origin)
Acetylcholinesterase [10] = target: T4, Acetylcholinesterase; experiment: Inhibition of human recombinant AChE using acetylthiocholine iodide as substrate preincubated for 15 mins followed by substrate addition measured for 10 mins DTNB reagent based Ellman's method
Cholinesterase [11] = target: T2, Cholinesterase; experiment: Inhibition of equine BuChE
Acetylcholinesterase [12] = target: T4, Acetylcholinesterase; experiment: Inhibition of AChE (unknown origin)
Homo sapiens = species: Homo sapiens; experiment: Selectivity index, ratio of IC50 for human BuChE to IC50 for human AChE
Acetylcholinesterase [13] = target: T4, Acetylcholinesterase; experiment: Inhibition of human AChE using […] as substrate incubated for 20 mins by DTNB reagent based Ellman's method
[14] = target: T5, Amine oxidase [flavin-containing] B (Homo sapiens, UniProt P27338); experiment: Inhibition of MAO-B (unknown origin)
T5 sequence (P27338 whole entry): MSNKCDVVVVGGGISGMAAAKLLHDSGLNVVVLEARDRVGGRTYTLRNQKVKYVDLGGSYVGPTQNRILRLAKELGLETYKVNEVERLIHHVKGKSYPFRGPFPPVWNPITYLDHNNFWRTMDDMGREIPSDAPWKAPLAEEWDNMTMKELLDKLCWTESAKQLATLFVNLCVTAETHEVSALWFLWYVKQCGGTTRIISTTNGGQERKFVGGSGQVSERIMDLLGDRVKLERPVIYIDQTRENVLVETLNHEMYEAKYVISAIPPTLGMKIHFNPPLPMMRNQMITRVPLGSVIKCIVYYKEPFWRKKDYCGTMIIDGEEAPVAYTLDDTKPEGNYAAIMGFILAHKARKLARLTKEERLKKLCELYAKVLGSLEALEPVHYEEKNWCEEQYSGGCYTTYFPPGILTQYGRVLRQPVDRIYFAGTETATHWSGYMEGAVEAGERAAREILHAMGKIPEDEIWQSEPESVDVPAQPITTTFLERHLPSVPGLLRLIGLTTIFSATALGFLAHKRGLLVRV

Cholinesterase [15] = target: T1, Cholinesterase; experiment: Inhibition of BuChE (unknown origin)
Cholinesterase [16] = target: T1, Cholinesterase; experiment: Inhibition of human BuChE using butyrylthiocholine iodide as substrate pre-incubated for 10 mins followed by substrate addition and measured for 15 mins by Ellman's method

T1 sequence (P06276 whole entry): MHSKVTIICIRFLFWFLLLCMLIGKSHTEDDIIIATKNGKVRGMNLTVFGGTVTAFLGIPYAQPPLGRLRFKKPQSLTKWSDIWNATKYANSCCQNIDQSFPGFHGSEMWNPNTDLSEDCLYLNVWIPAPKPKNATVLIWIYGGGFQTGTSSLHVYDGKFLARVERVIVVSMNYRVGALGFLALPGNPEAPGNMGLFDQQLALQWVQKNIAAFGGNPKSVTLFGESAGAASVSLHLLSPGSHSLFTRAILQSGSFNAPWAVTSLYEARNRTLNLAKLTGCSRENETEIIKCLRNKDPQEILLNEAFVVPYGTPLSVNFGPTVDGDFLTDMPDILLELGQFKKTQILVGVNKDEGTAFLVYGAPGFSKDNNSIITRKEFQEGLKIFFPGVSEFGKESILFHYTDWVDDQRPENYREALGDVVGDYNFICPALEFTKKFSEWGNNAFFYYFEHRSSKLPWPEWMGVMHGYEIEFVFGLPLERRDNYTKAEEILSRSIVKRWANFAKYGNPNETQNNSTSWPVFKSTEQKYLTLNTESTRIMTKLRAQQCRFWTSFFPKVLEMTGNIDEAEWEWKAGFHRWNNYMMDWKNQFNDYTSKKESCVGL

COc1cc(OC)c2c(=O)c(OCCCCn3cc(CN4C(=O)C(=O)c5ccccc54)nn3)c(-c3ccc(OC)c(OC)c3)oc2c1
IC50 (Cholinesterase [1]): 11.2 µM

O=C1O[C@H]([C@@H](O)CO)C(O)=C1O [ASCORBIC ACID]
IC50 [2]: 10.52 µg/mL (≈ 59.7 µM)

COc1cc2cc(-c3ccc(CN(C)Cc4ccccc4)cc3)c(=O)oc2cc1OC
IC50 (Cholinesterase [3]): 48.9 µM

COc1cccc2cc(C(=O)NCc3cnnn3Cc3ccccc3Cl)c(=O)oc12
IC50 (Acetylcholinesterase [4]): 15.4 µM | IC50 (Beta-secretase 1 [5]): 96.1 µM

COc1cc2ccc(=O)oc2cc1O [SCOPOLETIN]
IC50 (Cholinesterase [1]): 159 µM | IC50 (Beta-secretase 1 [6]): 159 µM | IC50 (Acetylcholinesterase [7]): 154 µM

O=C(NCCCN1CCOCC1)c1cc2ccc(OCc3cn(Cc4cccc(Cl)c4Cl)nn3)cc2oc1=O
IC50 (Cholinesterase [8]): 1.71 µM | IC50 (Beta-secretase 1 [9]): 21.1 µM

COc1cc2oc(=O)ccc2cc1O [ISOSCOPOLETIN]
IC50 (Cholinesterase [1]): 110 µM | IC50 (Beta-secretase 1 [6]): 146 µM | IC50 (Acetylcholinesterase [7]): 174 µM

O=c1ccc2ccc(O)cc2o1 [UMBELLIFERONE]
IC50 (Cholinesterase [1]): 105 µM | IC50 (Beta-secretase 1 [6]): 143 µM

CC(C)c1cc2cc3ccc(=O)oc3cc2o1
IC50 (Acetylcholinesterase [10]): 86.5 µM

O=c1oc2c(O)cccc2cc1-c1ccccc1
IC50 (Cholinesterase [11]): 13.1 µM

COc1cc(Cn2cc(COc3ccc4ccc(=O)oc4c3C(C)=O)nn2)cc(OC)c1
IC50 (Cholinesterase [1]): 3.26 µM | IC50 (Acetylcholinesterase [7]): 2.57 µM | IC50 (Beta-secretase 1 [9]): 10.7 µM

O=C(O)c1cc2ccc(=O)oc2cc1O
IC50 (Cholinesterase [1]): 27.2 µM | IC50 (Beta-secretase 1 [6]): 0.34 µM | IC50 (Acetylcholinesterase [7]): 145 µM

Cc1cc(=O)oc2cc(OCC(=O)N/N=C\c3ccc(C(=O)O)cc3)ccc12
IC50 (Acetylcholinesterase [7]): 0.802 µM

O=c1oc2ccccc2cc1-c1ccc(Br)cc1
IC50 (Acetylcholinesterase [12]): 19.2 µM

Cc1cc(=O)oc2cc(OCc3nnc(-c4cc(O)c(O)c(O)c4)o3)ccc12
Ratio IC50 (Homo sapiens): 1.65 | IC50 (Acetylcholinesterase [13]): 28.7 µM

O=C1CCOc2ccc(OCCN3CCCCCC3)cc21
IC50 [14]: 1.11 µM | IC50 (Acetylcholinesterase [12]): 4.88 µM | IC50 (Cholinesterase [15]): 13.7 µM

Cc1cc(=O)oc2cc(OCc3nnc(-c4ccc(O)c(O)c4)o3)ccc12
Ratio IC50 (Homo sapiens): 1.55 | IC50 (Acetylcholinesterase [13]): 29.6 µM

Cc1c(C)c2c(c(C)c1O)CCC(C)(C(=O)O)O2 (stereo not drawn) [TROLOX]
IC50 [2]: 12.54 µg/mL (≈ 50.1 µM)

COc1cccc2cc(-c3ccc(NC(=O)c4ccc(CCl)cc4)cc3)c(=O)oc12
IC50 (Acetylcholinesterase [12]): 0.091 µM

COc1cccc2cc(-c3ccc(NC(=O)c4ccc(F)cc4)cc3)c(=O)oc12
IC50 (Cholinesterase [11]): 0.55 µM

O=c1ccc2cc(O)c(O)cc2o1 [ESCULETIN]
IC50 (Cholinesterase [1]): 8.66 µM | IC50 (Acetylcholinesterase [7]): 6.13 µM

COc1ccc2ccc(=O)oc2c1 [HERNIARIN]
IC50 (Cholinesterase [1]): 119 µM | IC50 (Beta-secretase 1 [6]): 172 µM | IC50 (Acetylcholinesterase [7]): 104 µM

Cc1cc(=O)oc2cc(OCc3nnc(Cc4cccc5c4OCO5)o3)ccc12
IC50 (Cholinesterase [16]): 24 µM

O=C1OC2=C(O)C(O)=CCC2C=C1c1ccc(O)c(O)c1 (stereo not drawn)
IC50 (Acetylcholinesterase [12]): 3.04 µM

O=c1c(O)c(-c2ccc(O)c(O)c2)oc2cc(O)cc(O)c12 [QUERCETIN]
IC50 [2]: 3.18 µg/mL (≈ 10.5 µM)
